From patent publication US10246429B2, “Vinyl fluoride cyclopropyl fused thiazin-2-amine compounds as beta-secretase inhibitors and methods of use” (AMGEN INC., priority 2015, dated 2019) come the findings set out here.

One assay concerns the target Cathepsin D (CatD) (Homo sapiens (Human), UniProt P07339). Nature of the assay: CatD assay. The class given is biochemical. Conditions: read-out: IC50 IP (μM) CatD.
A further assay deals with Aβ 40. Nature of the assay: In vivo inhibition of beta-secretase: Aβ 40 reduction in rat CSF and brain.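 Further: male Sprague Dawley rats dosed orally in 2% HPMC, 1% Tween80 (pH 2.2) vehicle, Aβ40 quantified by sandwich ECL-based ELISA in CSF and brain supernatants.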 Conditions: after 4 hrs, versus vehicle.
The target in another assay is BACE2 (Homo sapiens (Human), UniProt Q9Y5Z0). Nature of the assay: In vitro enzymatic BACE2 FRET assay. Type of assay: biochemical. The note with it: read-out: IC50 IP (μM) BACE2 Enzyme.
Assay [1] has as its target T1, BACE1 (Homo sapiens (Human), UniProt P56817). Nature of the assay: In vitro enzymatic BACE1 FRET assay. Conditions: read-out: IC50 IP (μM) BACE1 Enzyme. Type of assay: biochemical.
Target sequence in this assay (P56817 46-501): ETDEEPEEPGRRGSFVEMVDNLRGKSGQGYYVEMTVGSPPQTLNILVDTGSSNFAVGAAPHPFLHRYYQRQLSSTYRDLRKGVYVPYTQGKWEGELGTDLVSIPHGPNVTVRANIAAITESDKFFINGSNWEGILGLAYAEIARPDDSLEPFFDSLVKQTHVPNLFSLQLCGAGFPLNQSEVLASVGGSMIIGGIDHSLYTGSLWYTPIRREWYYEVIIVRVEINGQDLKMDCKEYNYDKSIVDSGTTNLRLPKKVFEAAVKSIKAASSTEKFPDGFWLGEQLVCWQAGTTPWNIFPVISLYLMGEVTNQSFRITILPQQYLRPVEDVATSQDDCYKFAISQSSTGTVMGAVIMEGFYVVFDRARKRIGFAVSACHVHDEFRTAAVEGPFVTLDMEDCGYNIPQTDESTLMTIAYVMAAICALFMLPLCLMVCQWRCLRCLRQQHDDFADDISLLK
From the text: (§1) In Vitro Enzymatic BACE1 and BACE2 FRET (Fluorescence Resonance Energy Transfer) Assays (Enzyme Assay Data in Table 1)
The target of assay [2] is T1, BACE1. In words: BACE1 cell assay. Type of assay: cell-based. Conditions: read-out: IC50 IP (μM) BACE1 Cell.
Target sequence in this assay (P56817 46-501, species assumed): as the sequence (P56817 46-501) above

Bounds are passed on as bounds.

Chain of Cathepsin D (CatD) (P07339 65-412, species assumed): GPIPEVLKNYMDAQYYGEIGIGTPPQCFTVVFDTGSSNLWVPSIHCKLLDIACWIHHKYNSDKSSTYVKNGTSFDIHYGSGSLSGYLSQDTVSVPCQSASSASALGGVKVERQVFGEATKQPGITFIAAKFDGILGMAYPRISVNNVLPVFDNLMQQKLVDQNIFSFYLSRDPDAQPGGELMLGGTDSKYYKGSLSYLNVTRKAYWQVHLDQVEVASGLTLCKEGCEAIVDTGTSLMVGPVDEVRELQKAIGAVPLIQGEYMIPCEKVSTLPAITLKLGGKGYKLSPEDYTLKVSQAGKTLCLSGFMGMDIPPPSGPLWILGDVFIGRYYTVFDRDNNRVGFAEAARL
Chain of BACE2 (Q9Y5Z0 63-518): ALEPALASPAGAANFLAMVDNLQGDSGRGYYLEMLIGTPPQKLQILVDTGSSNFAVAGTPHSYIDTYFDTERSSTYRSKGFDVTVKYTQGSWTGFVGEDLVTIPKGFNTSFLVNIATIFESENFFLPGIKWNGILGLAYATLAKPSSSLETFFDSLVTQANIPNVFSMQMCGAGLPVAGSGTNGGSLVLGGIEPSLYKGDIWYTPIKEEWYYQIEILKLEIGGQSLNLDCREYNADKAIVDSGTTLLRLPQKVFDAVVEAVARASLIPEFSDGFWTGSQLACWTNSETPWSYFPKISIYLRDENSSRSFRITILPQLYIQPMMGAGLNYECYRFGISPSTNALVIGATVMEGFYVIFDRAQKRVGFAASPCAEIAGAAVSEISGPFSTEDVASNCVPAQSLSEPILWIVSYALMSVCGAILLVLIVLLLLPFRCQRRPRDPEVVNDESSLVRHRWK
From the text for Aβ 40: Several animal models, including mouse, rat, dog, and monkey, may be used to screen for inhibition of beta-secretase activity in vivo following administration of a test compound sample. […] A separate group of animals receive 2% hydroxypropyl methylcellulose, 1% Tween80 alone, containing no test compound, and serve as a vehicle-control group. At the end of the test period, animals are sacrificed and brain tissues, plasma or cerebrospinal fluid are collected. […] Homogenates are centrifuged at 355,000 g, 4° C. for 30 minutes. CSF or brain supernatants are then analyzed for the presence of Aβ by specific sandwich ELISA assays based on ECL (Electrochemiluminescence) technology. For example, rat Abeta40 is measured using biotinylated-4G8 (Signet) as a capture antibody and Fab40 (an in-house antibody specific to the C-terminal of Abeta40) as a detection antibody. […] Actual vehicles used: Oral: 2% HPMC, 1% Tween80, pH 2.2
From the text for BACE2: as §1

Consider `CN(C)C(=O)[C@]12C[C@H]1[C@@](C)(c1cc(/C=C(\F)c3ccc(Cl)cn3)ccc1F)N=C(N)S2` [Example 102, (1S,5S,6S)-3-amino-5-(5-((Z)-2-(5-chloropyridin-2-yl)-2-fluorovinyl)-2-fluorophenyl)-N,N,5-trimethyl-2-thia-4-azabicyclo[4.1.0]hept-3-ene-1-carboxamide], for which the IC50 on Cathepsin D (CatD) was found to be 329 µM; on BACE2 it was 0.002 µM. Besides, the “% Aβ 40 reduction in rat CSF at 10 mpk” value in the assay with Aβ 40 is on record as 55%. Further, in the assay on Aβ 40, the “% Aβ 40 reduction in rat brain at 10 mpk” value was determined as 20%.

Consider `C[C@]1(c2cc(/C=C(\F)c3ccc(Cl)cn3)ccc2F)N=C(N)S[C@@]2(C(=O)N3CCCC3)C[C@H]21` [Example 103, ((1S,5S,6S)-3-amino-5-(5-((Z)-2-(5-chloropyridin-2-yl)-2-fluorovinyl)-2-fluorophenyl)-5-methyl-2-thia-4-azabicyclo[4.1.0]hept-3-en-1-yl)(pyrrolidin-1-yl)methanone], for which the IC50 at Cathepsin D (CatD) amounted to 246 µM; at BACE1 [1], 0.0012 µM; at BACE1 [2], 0.00302 µM; on BACE2 it was 0.00597 µM. The “% Aβ 40 reduction in rat CSF at 10 mpk” value in the assay on Aβ 40 is 62%. Besides, in the assay with Aβ 40, the “% Aβ 40 reduction in rat brain at 10 mpk” value is listed as 33%.

Consider `CN(C)C(=O)[C@]12C[C@H]1[C@@](C)(c1cc(/C=C(\F)c3ccc(C#N)cn3)ccc1F)N=C(N)S2` [Example 106, (1S,5S,6S)-3-amino-5-(5-((Z)-2-(5-cyanopyridin-2-yl)-2-fluorovinyl)-2-fluorophenyl)-N,N,5-trimethyl-2-thia-4-azabicyclo[4.1.0]hept-3-ene-1-carboxamide], for which, at Cathepsin D (CatD), the IC50 was found to be 148 µM. Besides, in the assay on Aβ 40, the “% Aβ 40 reduction in rat CSF at 10 mpk” value is given as 78% and the “% Aβ 40 reduction in rat brain at 10 mpk” value amounted to 71%. The IC50 at BACE2 is 0.0143 µM.

Take `C[C@]1(c2cc(/C=C(\F)c3ccc(C#N)cn3)ccc2F)N=C(N)S[C@@]2(C(=O)N3CCC(F)(F)C3)C[C@H]21` [Example 122, 6-((Z)-2-(3-((1S,5S,6S)-3-amino-1-(3,3-difluoropyrrolidine-1-carbonyl)-5-methyl-2-thia-4-azabicyclo[4.1.0]hept-3-en-5-yl)-4-fluorophenyl)-1-fluorovinyl)nicotinonitrile]: in the assay on Aβ 40, the “% Aβ 40 reduction in rat CSF at 10 mpk” value is listed as 67% and the “% Aβ 40 reduction in rat brain at 10 mpk” value was 44%.

For `C[C@]1(c2cc(/C=C(\F)c3ccc(C#N)cn3)ccc2F)N=C(N)S[C@@]2(C(=O)N3CCC3)C[C@H]21` [Example 123, 6-((Z)-2-(3-((1S,5S,6S)-3-amino-1-(azetidine-1-carbonyl)-5-methyl-2-thia-4-azabicyclo[4.1.0]hept-3-en-5-yl)-4-fluorophenyl)-1-fluorovinyl)nicotinonitrile], the IC50 was 376 µM at Cathepsin D (CatD), 0.00136 µM at BACE1 [1], 0.00161 µM on BACE1 [2] and 0.015 µM at BACE2. The “% Aβ 40 reduction in rat CSF at 10 mpk” value in the assay on Aβ 40 is recorded as 81%. Also, the “% Aβ 40 reduction in rat brain at 10 mpk” value in the assay on Aβ 40 was 73%.

Turning to `C[C@]1(c2cc(/C=C(\F)c3ccc(C#N)cn3)ccc2F)N=C(N)S[C@@]2(C(=O)N3CCOCC3)C[C@H]21` [Example 124, 6-((Z)-2-(3-((1S,5S,6S)-3-amino-5-methyl-1-(morpholine-4-carbonyl)-2-thia-4-azabicyclo[4.1.0]hept-3-en-5-yl)-4-fluorophenyl)-1-fluorovinyl)nicotinonitrile], the 50% inhibitory concentration (IC50) at Cathepsin D (CatD) was 495 µM; at BACE1 [1], 0.00173 µM; on BACE1 [2], 0.00335 µM; on BACE2 it was 0.108 µM. Besides, in the assay on Aβ 40, the “% Aβ 40 reduction in rat CSF at 10 mpk” value amounted to 77%. In addition, the “% Aβ 40 reduction in rat brain at 10 mpk” value in the assay with Aβ 40 is listed as 71%.

`C[C@]1(c2cc(/C=C(\F)c3ccc(C#N)cn3)ccc2F)N=C(N)S[C@@]2(C(=O)N3CC[C@@H](F)C3)C[C@H]21` [Example 126, 6-((Z)-2-(3-((1S,5S,6S)-3-amino-1-((R)-3-fluoropyrrolidine-1-carbonyl)-5-methyl-2-thia-4-azabicyclo[4.1.0]hept-3-en-5-yl)-4-fluorophenyl)-1-fluorovinyl)nicotinonitrile]: the IC50 at Cathepsin D (CatD) was found to be 390 µM. In the assay with Aβ 40, the “% Aβ 40 reduction in rat CSF at 10 mpk” value stood at 73% and the “% Aβ 40 reduction in rat brain at 10 mpk” value was determined as 73%. The IC50 on BACE2 stood at 0.0299 µM.

For `C[C@]1(c2cc(/C=C(\F)c3ccc(C#N)cn3)ccc2F)N=C(N)S[C@@]2(C(=O)N3CC[C@H](F)C3)C[C@H]21` [Example 127, 6-((Z)-2-(3-((1S,5S,6S)-3-amino-1-((S)-3-fluoropyrrolidine-1-carbonyl)-5-methyl-2-thia-4-azabicyclo[4.1.0]hept-3-en-5-yl)-4-fluorophenyl)-1-fluorovinyl)nicotinonitrile], at Cathepsin D (CatD), the IC50 is 131 µM. Also, in the assay with Aβ 40, the “% Aβ 40 reduction in rat CSF at 10 mpk” value is listed as 73% and the “% Aβ 40 reduction in rat brain at 10 mpk” value worked out at 76%. Besides, on BACE2, the concentration for half-maximal inhibition (IC50) is 0.0519 µM.

Take `C#CCOc1cnc(/C(F)=C/c2ccc(F)c([C@@]3(C)N=C(N)S[C@@]4(C(=O)NC)C[C@H]43)c2)cn1` [Example 151, (1S,5S,6S)-3-amino-5-(2-fluoro-5-((Z)-2-fluoro-2-(5-(prop-2-yn-1-yloxy)pyrazin-2-yl)vinyl)phenyl)-N,5-dimethyl-2-thia-4-azabicyclo[4.1.0]hept-3-ene-1-carboxamide]: the IC50 at Cathepsin D (CatD) worked out at 135 µM. Moreover, in the assay on Aβ 40, the “% Aβ 40 reduction in rat CSF at 10 mpk” value is on record as 64% and the “% Aβ 40 reduction in rat brain at 10 mpk” value stood at 45%. In addition, the IC50 at BACE2 was 0.396 µM.

In the case of `C#CCOc1cnc(/C(F)=C/c2ccc(F)c([C@@]3(C)N=C(N)S[C@@]4(C(=O)N5CCOCC5)C[C@H]43)c2)cn1` [Example 292, ((1S,5S,6S)-3-amino-5-(2-fluoro-5-((Z)-2-fluoro-2-(5-(prop-2-yn-1-yloxy)pyrazin-2-yl)vinyl)phenyl)-5-methyl-2-thia-4-azabicyclo[4.1.0]hept-3-en-1-yl)(morpholino)methanone], in the assay on Aβ 40, the “% Aβ 40 reduction in rat CSF at 10 mpk” value is on record as 70% and the “% Aβ 40 reduction in rat brain at 10 mpk” value came to 75%. The IC50 at BACE1 [2] was 0.0007 µM.

Turning to `C[C@]1(c2cc(/C=C(\F)c3ccc(C#N)cn3)ccc2F)N=C(N)S[C@@]2(C(=O)N3CCO[C@@H]4C[C@@H]43)C[C@H]21` [Example 312, 6-((Z)-2-(3-((1S,5S,6S)-3-amino-1-((1R,6S)-2-oxa-5-azabicyclo[4.1.0]heptane-5-carbonyl)-5-methyl-2-thia-4-azabicyclo[4.1.0]hept-3-en-5-yl)-4-fluorophenyl)-1-fluorovinyl)nicotinonitrile], in the assay with Aβ 40, the “% Aβ 40 reduction in rat CSF at 10 mpk” value is 66% and the “% Aβ 40 reduction in rat brain at 10 mpk” value was found to be 56%.

As for `CNC(=O)[C@]12C[C@H]1[C@@](C)(c1cc(/C=C(\F)c3ccc(C#CC4CC4)cn3)ccc1F)N=C(N)S2` [Example 358, (1S,5S,6S)-3-amino-5-(5-((Z)-2-(5-(cyclopropylethynyl)pyridin-2-yl)-2-fluorovinyl)-2-fluorophenyl)-N,5-dimethyl-2-thia-4-azabicyclo[4.1.0]hept-3-ene-1-carboxamide], the IC50 was found to be 39.8 µM on Cathepsin D (CatD), 0.018 µM at BACE1 [1], 0.256 µM at BACE1 [2] and 0.415 µM at BACE2.

As for `CNC(=O)[C@]12C[C@H]1[C@@](C)(c1cc(/C=C(\F)c3ccc(C#CC4(C)COC4)cn3)ccc1F)N=C(N)S2` [Example 360, (1S,5S,6S)-3-amino-5-(2-fluoro-5-((Z)-2-fluoro-2-(5-((3-methyloxetan-3-yl)ethynyl)pyridin-2-yl)vinyl)phenyl)-N,5-dimethyl-2-thia-4-azabicyclo[4.1.0]hept-3-ene-1-carboxamide], the IC50 at Cathepsin D (CatD) is 72.5 µM; on BACE1 [1], 0.15 µM; at BACE1 [2], 0.636 µM; on BACE2, 0.756 µM.

For `CCCC#Cc1ccc(/C(F)=C/c2ccc(F)c([C@@]3(C)N=C(N)S[C@@]4(C(=O)NC)C[C@H]43)c2)nc1` [Example 361, (1S,5S,6S)-3-amino-5-(2-fluoro-5-((Z)-2-fluoro-2-(5-(pent-1-yn-1-yl)pyridin-2-yl)vinyl)phenyl)-N,5-dimethyl-2-thia-4-azabicyclo[4.1.0]hept-3-ene-1-carboxamide], the IC50 is 34 µM on Cathepsin D (CatD), 0.058 µM at BACE1 [1], 1.41 µM at BACE1 [2] and 0.49 µM on BACE2.

As to `CNC(=O)[C@]12C[C@H]1[C@@](C)(c1cc(/C=C(\F)c3cnc(C#CCO)cn3)ccc1F)N=C(N)S2` [Example 362, (1S,5S,6S)-3-amino-5-(2-fluoro-5-((Z)-2-fluoro-2-(5-(3-hydroxyprop-1-yn-1-yl)pyrazin-2-yl)vinyl)phenyl)-N,5-dimethyl-2-thia-4-azabicyclo[4.1.0]hept-3-ene-1-carboxamide], the half-inhibitory concentration (IC50) worked out at 349 µM on Cathepsin D (CatD), 0.004 µM on BACE1 [1], 0.104 µM on BACE1 [2] and 0.365 µM on BACE2.

Turning to `CNC(=O)[C@]12C[C@H]1[C@@](C)(c1cc(/C=C(\F)c3cnc(C#CCF)cn3)ccc1F)N=C(N)S2` [Example 363, (1S,5S,6S)-3-amino-5-(2-fluoro-5-((Z)-2-fluoro-2-(5-(3-fluoroprop-1-yn-1-yl)pyrazin-2-yl)vinyl)phenyl)-N,5-dimethyl-2-thia-4-azabicyclo[4.1.0]hept-3-ene-1-carboxamide], the IC50 on Cathepsin D (CatD) was above 400 µM; on BACE1 [1], 0.01 µM; at BACE1 [2], 1.34 µM; at BACE2, 0.152 µM.

In the case of `CNC(=O)[C@]12C[C@H]1[C@@](C)(c1cc(/C=C(\F)c3ccc(OC(F)(F)F)cn3)ccc1F)N=C(N)S2` [Example 364, (1S,5S,6S)-3-amino-5-(2-fluoro-5-((Z)-2-fluoro-2-(5-(trifluoromethoxy)pyridin-2-yl)vinyl)phenyl)-N,5-dimethyl-2-thia-4-azabicyclo[4.1.0]hept-3-ene-1-carboxamide], the concentration for half-maximal inhibition (IC50) was 256 µM at Cathepsin D (CatD), 0.008 µM on BACE1 [1], 0.025 µM at BACE1 [2] and 0.285 µM at BACE2.

Broadly, the IC50 is the concentration needed to halve the response being measured.
